Data from patent US20150045423A1, “COMPOUNDS FOR THE PREVENTION AND/OR TREATMENT OF OSTEOARTHROSIS” (Universitaetsklinikum Muenster, priority 2010, published 2015).

Test system: hyaluronan export from fibroblasts
Assay: Assay for hyaluronan transport/export inhibitors in fibroblast cell culture (hyaluronan in culture medium by ELISA)
Type: cell-based
Conditions: 48 h, 2 days at 37° C., hyaluronan concentration in culture medium, read-out: Inhibition of hyaluronan export IC50
Protocol: Assay for Hyaluronan Transport/Export Inhibitors in Fibroblast Cell Culture
Trypsinized fibroblasts were suspended in Dulbeccos medium at 10^5 cells/ml and 100 μl aliquots were transferred to a 96 well microtiter plate. The first row received 200 μl of the suspension and 20 μl of the inhibitors of the invention dissolved in phosphate buffered saline at concentrations of 4 mM. A serial dilution of the inhibitors was established by transfer of 100 μl aliquots from the first row to the following rows. All experiments were performed in duplicates. […] The cells were incubated for 2 days at 37° C. and aliquots (5 and 20 μl) of the culture medium were used for measurement of the hyaluronan concentration in the cell culture medium by an ELISA [125]. Briefly, the wells of a 96 well Covalink-NH-microtiter plate (NUNC) were coated with 100 μl of a mixture of […] of hyaluronan (HEALON®), 9.2 μg/ml of N-Hydroxysuccinimide-3-sulfonic acid and 615 μl/ml of 1-ethyl-3-(3-dimethylaminopropyl)-carbodiimide for 2 hours at room temperature and overnight at 4° C. The wells were washed three times with 2 M NaCl, 41 mM MgSO4, 0.05% Tween-20 in 50 mM phosphate buffered saline pH 7.2 (buffer A) and once with 2 M NaCl, 41 mM MgSO4, in phosphate buffered saline pH 7.2. Additional binding sites were blocked by incubation with 300 μl of 0.5% bovine serum albumin in phosphate buffered saline for 30 min at 37° C. Calibration of the assay was performed with standard concentrations of hyaluronan ranging from 15 ng/ml to 6000 ng/ml in equal volumes of culture medium as used for measurement of the cellular supernatants. A solution (50 μl) of the biotinylated hyaluronan binding fragment of aggrecan (Calbiochem) in 1.5 M NaCl, 0.3 M guanidinium hydrochloride, 0.08% bovine serum albumin 0.02% NaN3 25 mM phosphate buffer pH 7.0 was preincubated with 50 μl of the standard hyaluronan solutions or cellular supernatants for 1 hour at 37° C. […] The adsorption was read at 490 nm. The concentrations in the samples were calculated from a logarithmic regression curve of the hyaluronan standard solutions.

SMILES | IC50 [µM]
CC(C)=CCc1c(O)cc(O)c2c1OC(c1ccc(O)cc1)CC2=O (stereo not drawn) [8-Prenylnaringenin] | 15
COc1cc(O)c(CC=C(C)C)c2c1C(=O)CC(c1ccc(O)cc1)O2 (stereo not drawn) [Isoxanthohumol] | 15
COc1cc(O)c(CC=C(C)C)c(O)c1C(=O)/C=C/c1ccc(O)cc1 [Xanthohumol] | 8
